Among the data in patent US20240391948A1, “NOVEL COMPOUND THAT INHIBITS TNF-ALPHA GENERATION AND INFLAMMASOME ACTIVITY AND PREPARATION METHOD THEREFOR” (SHAPERON INC., priority 2021, published 2024) are IC50 and inhibition values, retold here.

SMILES strings stand for the structures.

Assay type in all cases: cell-based
Test [1] has as its system U937 cells (human monocytic cell line). The experiment in a line: BzATP-induced IL-1β secretion inhibition in PMA-differentiated U937 cells. The note with it: U-937, U937 cells differentiated with PMA, read-out: IL-1β production inhibition grade (IC50). The procedure: (§1) To evaluate anti-inflammatory efficacy, U937 cells (human monocytic cell line) were differentiated into macrophages using PMA (phorbol 12-myristate 13-acetate) and then induced an inflammatory response with Pam2CSK4 (Pam2CysSerLys4) or BzATP (2′(3′)—O-(4-Benzoylbenzoyl)adenosine 5′-triphosphate), the efficacy of taurine-bile acid derivatives in suppressing inflammatory cytokine (IL-1β, TNF-α) production was measured.
(§2) Using PMA, U937 cells were differentiated into macrophages, and the extent of TNF-α secretion inhibition was measured in an experimental group where taurine-bile acid derivatives was treated, followed by induction of inflammatory response with Pam2CSK4, and in the experimental group in which an inflammatory response was induced with BzATP, the extent to which IL-1β secretion among cytokines was suppressed was measured.
(§3) The ability of taurine-bile acid derivatives to inhibit cytokine production was expressed in terms of IC50 (μM) values. The standards for TNF α inhibition ability are A: less than 0.5, B: 0.5 to less than 1.0, C: 1.0 to less than 2.0, D: 2.0 or more, and the IL-1β inhibition ability grade standards are A: less than 0.05, B: 0.05 to less than 0.10, C: 0.10 or more and less than 0.20, D: 0.20 or more.

In test [2] the test system is J774A.1 (Mouse BALB/c monocyte macrophage cell line) cells. The experiment in a line: LPS+ATP-induced IL-1β secretion inhibition in J774A.1 cells. The note with it: J774.A1, 1 μM compound, graded compared to taurodeoxycholic acid (positive control), read-out: IL-1β production inhibition grade. The procedure:
(§4) To evaluate anti-inflammatory efficacy, an inflammatory response was induced in J774A.1 (Mouse BALB/c monocyte macrophage cell line) cells derived from mouse macrophages by LPS (lipopolysaccharide) and LPS+ATP (adenosine triphosphate), and the efficacy of taurine-bile acid derivatives to inhibit the production of inflammatory cytokines (IL-1β, TNF-α) was measured. After treating J774A.1 cells with 1 μM of a taurine-bile acid derivative, the degree to which the secretion of TNF-α among cytokines was suppressed was measured in the experimental group in which an inflammatory response was induced by LPS, and the extent to which IL-1β secretion among cytokines was suppressed was measured in the experimental group in which an inflammatory response was induced with LPS+ATP. The ability of taurine-bile acid derivatives to inhibit cytokine production was graded compared to taurodeoxycholic acid, a positive control. The grading criteria are A: over 100%, B: over 50% and under 100%, C: between 20% and under 50%, and D: under 20%.

For test [3] the test system is unchanged. As to the kind of experiment: LPS-induced TNF-α secretion inhibition in J774A.1 cells. The note with it: J774.A1, 1 μM compound, graded compared to taurodeoxycholic acid (positive control), read-out: TNF-α production inhibition grade. The procedure:
as §4

In test [4] the test system is U937 cells (human monocytic cell line). The experiment in a line: Pam2CSK4-induced TNF-α secretion inhibition in PMA-differentiated U937 cells. The note with it: U-937, U937 cells differentiated with PMA, read-out: TNF-α production inhibition grade (IC50). Here is the method: as §1, §2, §3

For the compound `C[C@H](CCC(=O)NCS(=O)(=O)O)[C@H]1CC[C@H]2[C@@H]3CC[C@@H]4C[C@H](O)CC[C@]4(C)[C@H]3C[C@H](O)[C@]12C` [NC10001], the IC50 (as a rule, the midpoint of a concentration-inhibition curve) in test [1] is under 50 nM; in test [4], at least 2000 nM. Besides, the inhibition – broadly, the relative decrease from the control value, in per cent – at 1 µM in test [2] is over 100%; in test [3], under 20%.
Regarding `C[C@H](CCC(=O)NCCCS(=O)(=O)O)[C@H]1CC[C@H]2[C@@H]3CC[C@@H]4C[C@H](O)CC[C@]4(C)[C@H]3C[C@H](O)[C@]12C` [NC10002], the IC50 in test [1] was under 50 nM; in test [4] it was under 500 nM. Moreover, the inhibition at 1 µM in test [2] and in test [3] was over 100% in each case.
Take `C[C@H](CCC(=O)NCCCO)[C@H]1CC[C@H]2[C@@H]3[C@H](O)C[C@@H]4C[C@H](O)CC[C@]4(C)[C@H]3C[C@H](O)[C@]12C` [NC20003]: in test [1], the half-inhibitory concentration (IC50) fell in the range of 50 to 100 nM. For the same compound, the inhibition at 1 µM in test [2] lay in the range of 20 to 50%; in test [3], 50 to 100%.
With `CC[C@H]1[C@@H](O)[C@@H]2[C@H](CC[C@]3(C)[C@@H]([C@H](C)CCC(=O)N[C@H](CS(=O)(=O)O)C(C)C)CC[C@@H]23)[C@@]2(C)CC[C@@H](O)C[C@@H]12` [NC40016], the values for the IC50 in test [1] and in test [4] were at least 200 nM and 500 to 1000 nM, respectively.
Take `CC[C@H]1[C@@H](O)[C@@H]2[C@H](CC[C@]3(C)[C@@H]([C@H](C)CCC(=O)N[C@@H]4CCCC[C@@H]4S(=O)(=O)O)CC[C@@H]23)[C@@]2(C)CC[C@@H](O)C[C@@H]12` [NC40026]: the IC50 was 50 to 100 nM in test [1] and 500 to 1000 nM in test [4].
Take `CC[C@H]1[C@@H](O)[C@@H]2[C@H](C[C@H](O)[C@]3(C)[C@@H]([C@H](C)CCC(=O)NCCC(=O)O)CC[C@@H]23)[C@@]2(C)CC[C@@H](O)C[C@@H]12` [NC50002]: the half-maximal inhibitory concentration (IC50) in test [1] was at least 200 nM; in test [4] it was at least 2000 nM.
Taken in the same sequence, the figures for `CC[C@H]1[C@@H](O)[C@@H]2[C@H](C[C@H](O)[C@]3(C)[C@@H]([C@H](C)CCC(=O)N(CCS(=O)(=O)O)Cc4ccccc4)CC[C@@H]23)[C@@]2(C)CC[C@@H](O)C[C@@H]12` [NC50005] were at least 200 nM and 1000 to 2000 nM.
`CC[C@H]1[C@@H](O)[C@@H]2[C@H](C[C@H](O)[C@]3(C)[C@@H]([C@H](C)CCC(=O)N4CCC[C@H](S(=O)(=O)O)C4)CC[C@@H]23)[C@@]2(C)CC[C@@H](O)C[C@@H]12` [NC50009]: the IC50 in test [1] lay within 100 to 200 nM; in test [4] it was 1000 to 2000 nM.
For the compound `CC[C@H]1[C@@H](O)[C@@H]2[C@H](C[C@H](O)[C@]3(C)[C@@H]([C@H](C)CCC(=O)N4CCC(S(=O)(=O)O)CC4)CC[C@@H]23)[C@@]2(C)CC[C@@H](O)C[C@@H]12` [NC50011], the IC50 in test [1] was at least 200 nM; in test [4], at least 2000 nM.
As to `CC[C@H]1[C@@H](O)[C@@H]2[C@H](C[C@H](O)[C@]3(C)[C@@H]([C@H](C)CCC(=O)N[C@@H](Cc4ccccc4)CS(=O)(=O)O)CC[C@@H]23)[C@@]2(C)CC[C@@H](O)C[C@@H]12` [NC50014], the concentration for half-maximal inhibition (IC50) was under 50 nM in test [1] and 500 to 1000 nM in test [4].
With `CC[C@H]1[C@@H](O)[C@@H]2[C@H](C[C@H](O)[C@]3(C)[C@@H]([C@H](C)CCC(=O)N[C@@H](CS(=O)(=O)O)C(C)C)CC[C@@H]23)[C@@]2(C)CC[C@@H](O)C[C@@H]12` [NC50017], the IC50 in test [1] was in the range of 50 to 100 nM; in test [4] it was 1000 to 2000 nM.
Turning to `CC[C@H]1[C@@H](O)[C@@H]2[C@H](C[C@H](O)[C@]3(C)[C@@H]([C@H](C)CCC(=O)NC[C@@H](C)S(=O)(=O)O)CC[C@@H]23)[C@@]2(C)CC[C@@H](O)C[C@@H]12` [NC50023], the IC50 in test [1] is at least 200 nM; in test [4] it was at least 2000 nM.
